Source: patent US20210403485A1, “PYRAZOLOPYRIMIDINE DERIVATIVE AS SELECTIVE TRK INHIBITOR” (SHANDONG LUYE PHARMACEUTICAL CO., LTD., priority 2018, published 2021)
pIC50: −log10 of the molar value.

Legend:
TrkA = molecular target: T1, TrkA (Homo sapiens, UniProt P04629); experiment: Kinase inhibitory activity (33P-ATP, filtration-binding method, Reaction Biology Corp.); format: biochemical; conditions: read-out: Half maximal inhibitory concentration IC50 for kinases, TrkA
T1 construct: purchased Reaction Biology Corp
T1 sequence (P04629 33-796): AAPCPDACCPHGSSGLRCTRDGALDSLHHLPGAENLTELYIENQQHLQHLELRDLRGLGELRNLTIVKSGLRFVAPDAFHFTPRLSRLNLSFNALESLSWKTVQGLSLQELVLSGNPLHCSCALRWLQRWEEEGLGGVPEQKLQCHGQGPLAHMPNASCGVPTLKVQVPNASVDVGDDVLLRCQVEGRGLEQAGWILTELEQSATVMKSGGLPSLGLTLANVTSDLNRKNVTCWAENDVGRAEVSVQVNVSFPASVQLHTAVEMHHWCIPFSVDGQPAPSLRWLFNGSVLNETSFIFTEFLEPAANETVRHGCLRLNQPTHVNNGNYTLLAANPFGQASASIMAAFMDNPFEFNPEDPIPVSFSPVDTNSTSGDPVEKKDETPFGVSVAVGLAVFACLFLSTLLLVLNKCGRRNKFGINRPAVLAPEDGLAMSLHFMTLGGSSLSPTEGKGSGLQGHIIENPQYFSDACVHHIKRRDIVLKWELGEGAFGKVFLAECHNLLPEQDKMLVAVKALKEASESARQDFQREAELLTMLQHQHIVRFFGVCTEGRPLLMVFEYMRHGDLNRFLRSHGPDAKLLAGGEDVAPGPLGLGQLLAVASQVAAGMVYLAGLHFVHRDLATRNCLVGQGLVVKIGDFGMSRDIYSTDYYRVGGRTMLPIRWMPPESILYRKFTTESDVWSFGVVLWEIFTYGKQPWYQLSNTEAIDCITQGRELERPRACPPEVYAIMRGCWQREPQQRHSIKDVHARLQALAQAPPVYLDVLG
Experimental: (§1) The mixture was incubated at room temperature for 20 minutes, added with ^33P-ATP at a certain concentration to start the reaction, and then incubated at room temperature for 120 minutes. Finally, the radioactivity of the reactant was detected by the filtration-binding method. The final kinase activity was expressed as the ratio of the remaining kinase activity in the test sample to the kinase activity of the DMSO control. The dose-response curves were fitted and IC50 values were calculated by GraphPad software.

Ba/F3 LMNA-NTRK1-WT = molecular target: T2, Ba/F3 LMNA-NTRK1-WT (Homo sapiens, UniProt P04629); experiment: Inhibitory activity against cell proliferation (CellTiter-Glo, 72 hours); format: cell-based; conditions: read-out: Half maximal inhibitory concentration IC50 of cells, Ba/F3 LMNA-NTRK1-WT
T2 construct: fused on or other part: N-terminal part of LMNA as fusion partner (part of the key); P02545 (Prelamin-A/C)
T2 sequence (P04629 whole entry, stated change not applied, the tested form may be a part): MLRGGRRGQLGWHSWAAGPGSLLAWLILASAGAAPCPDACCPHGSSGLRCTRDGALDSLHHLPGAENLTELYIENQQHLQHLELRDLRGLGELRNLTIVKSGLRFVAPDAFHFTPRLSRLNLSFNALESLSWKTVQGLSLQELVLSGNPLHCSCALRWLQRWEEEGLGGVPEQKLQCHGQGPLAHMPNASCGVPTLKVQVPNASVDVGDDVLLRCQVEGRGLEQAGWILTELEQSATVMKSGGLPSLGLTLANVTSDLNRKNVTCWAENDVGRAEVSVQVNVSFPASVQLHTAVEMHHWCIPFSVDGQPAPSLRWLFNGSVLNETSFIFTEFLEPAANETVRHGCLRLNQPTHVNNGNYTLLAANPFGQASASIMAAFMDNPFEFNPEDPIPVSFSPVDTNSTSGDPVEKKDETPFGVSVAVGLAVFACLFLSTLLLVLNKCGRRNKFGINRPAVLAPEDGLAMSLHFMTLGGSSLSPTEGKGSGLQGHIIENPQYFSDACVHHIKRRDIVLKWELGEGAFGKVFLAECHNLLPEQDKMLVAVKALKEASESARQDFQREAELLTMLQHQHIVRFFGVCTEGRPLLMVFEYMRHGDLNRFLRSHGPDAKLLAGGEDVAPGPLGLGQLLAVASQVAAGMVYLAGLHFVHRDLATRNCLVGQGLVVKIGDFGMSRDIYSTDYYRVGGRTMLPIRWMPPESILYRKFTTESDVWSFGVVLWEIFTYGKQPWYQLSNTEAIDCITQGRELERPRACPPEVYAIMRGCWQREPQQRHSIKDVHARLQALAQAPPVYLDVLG
Experimental: (§2) Adenosine Triphosphate (ATP) is an energy carrier commonly used in various life activities in nature, and is the minimum unit for energy storage and transfer. The CellTiter-Glo™ cell viability assay kit uses luciferase as an assay agent, which requires the involvement of ATP in luminescence. The CellTiter-Glo™ reagent is added into cell culture medium to measure the luminescence value. The luminescence signal is directly proportional to the amount of ATP in the system, and the ATP is positively correlated with the number of viable cells. Therefore, the proliferation of cells can be detected by detecting the ATP content using the CellTiter-Glo kit.
(§3) a) Cells in the logarithmic growth phase were collected and counted using a […]. The cell viability was detected by the trypan blue exclusion method, and the cell viability was kept over 90%.
(§4) b) The cell concentration was adjusted; 90 μL of the cell suspension was added to a 96-well plate.
(§5) a) A 10-fold compound solution was prepared, with the highest concentration being 10 μM (a total of 9 concentrations, 3-fold dilution). 10 μL of compound solution was added to each well of a 96-well plate inoculated with cells, and three duplicate wells were set for each compound concentration.
(§6) a) The CTG reagent was thawed and the cell plate was equilibrated to room temperature for 30 minutes.
(§7) b) An equal volume of CTG solution was added to each well.
(§8) c) The plate was shaken on an orbital shaker for 5 minutes to lyse the cells.
(§9) d) The cell plate was placed at room temperature for 20 minutes to stabilize the luminescence signal.
(§10) e) The luminescence value was read.
(§11) The data were analyzed using GraphPad Prism 5.0 software, fitted with nonlinear S-curve regression to give dose-response curves, and IC50 values were calculated therefrom.

Ba/F3 SLC34A2-ROS1-WT = molecular target: T3, Ba/F3 SLC34A2-ROS1-WT (Homo sapiens, UniProt P08922); experiment: as above; format: cell-based; conditions: read-out: Half maximal inhibitory concentration IC50 of cells, Ba/F3 SLC34A2-ROS1-WT
T3 construct: fused on or other part: N-terminal part of SLC34A2 as fusion partner (part of the key); O95436 (Sodium-dependent phosphate transport protein 2B)
Experimental: as §2, §3, §4, §5, §6, §7, §8, §9, §10, §11

BaF3 LMNA-NTRK1-G595R = molecular target: T4, BaF3 LMNA-NTRK1-G595R (Homo sapiens, UniProt P04629, G595R, cells depend on it); experiment: as above; format: cell-based; conditions: read-out: Half maximal inhibitory concentration IC50 of cells, BaF3 LMNA-NTRK1-G595R
T4 construct: fused on or other part: N-terminal part of LMNA as fusion partner (part of the key); P02545 (Prelamin-A/C)
T4 sequence (P04629 whole entry G595R, the tested form may be a part): as the sequence (P04629 whole entry, stated change not applied, the tested form may be a part) above, with G595R counted along it
Experimental: as §2, §3, §4, §5, §6, §7, §8, §9, §10, §11

TrkA-G595R = molecular target: T5, TrkA-G595R (Homo sapiens, UniProt P04629, G595R); experiment: Kinase inhibitory activity (33P-ATP, filtration-binding method, Reaction Biology Corp.); format: biochemical; conditions: read-out: Half maximal inhibitory concentration IC50 for kinases, TrkA-G595R
T5 construct: purchased Reaction Biology Corp
T5 sequence (P04629 33-796 G595R): as the sequence (P04629 33-796) above, with G563R counted along it
Experimental: as §1

ALK = molecular target: T6, ALK (Homo sapiens, UniProt Q9UM73); experiment: as above; format: biochemical; conditions: read-out: Half maximal inhibitory concentration IC50 for kinases, ALK
T6 construct: purchased Reaction Biology Corp
Experimental: as §1

Ros1 = molecular target: T7, Ros1 (Homo sapiens, UniProt P08922); experiment: as above; format: biochemical; conditions: read-out: Half maximal inhibitory concentration IC50 for kinases, Ros1
T7 construct: purchased Reaction Biology Corp
T7 sequence (P08922 28-2347): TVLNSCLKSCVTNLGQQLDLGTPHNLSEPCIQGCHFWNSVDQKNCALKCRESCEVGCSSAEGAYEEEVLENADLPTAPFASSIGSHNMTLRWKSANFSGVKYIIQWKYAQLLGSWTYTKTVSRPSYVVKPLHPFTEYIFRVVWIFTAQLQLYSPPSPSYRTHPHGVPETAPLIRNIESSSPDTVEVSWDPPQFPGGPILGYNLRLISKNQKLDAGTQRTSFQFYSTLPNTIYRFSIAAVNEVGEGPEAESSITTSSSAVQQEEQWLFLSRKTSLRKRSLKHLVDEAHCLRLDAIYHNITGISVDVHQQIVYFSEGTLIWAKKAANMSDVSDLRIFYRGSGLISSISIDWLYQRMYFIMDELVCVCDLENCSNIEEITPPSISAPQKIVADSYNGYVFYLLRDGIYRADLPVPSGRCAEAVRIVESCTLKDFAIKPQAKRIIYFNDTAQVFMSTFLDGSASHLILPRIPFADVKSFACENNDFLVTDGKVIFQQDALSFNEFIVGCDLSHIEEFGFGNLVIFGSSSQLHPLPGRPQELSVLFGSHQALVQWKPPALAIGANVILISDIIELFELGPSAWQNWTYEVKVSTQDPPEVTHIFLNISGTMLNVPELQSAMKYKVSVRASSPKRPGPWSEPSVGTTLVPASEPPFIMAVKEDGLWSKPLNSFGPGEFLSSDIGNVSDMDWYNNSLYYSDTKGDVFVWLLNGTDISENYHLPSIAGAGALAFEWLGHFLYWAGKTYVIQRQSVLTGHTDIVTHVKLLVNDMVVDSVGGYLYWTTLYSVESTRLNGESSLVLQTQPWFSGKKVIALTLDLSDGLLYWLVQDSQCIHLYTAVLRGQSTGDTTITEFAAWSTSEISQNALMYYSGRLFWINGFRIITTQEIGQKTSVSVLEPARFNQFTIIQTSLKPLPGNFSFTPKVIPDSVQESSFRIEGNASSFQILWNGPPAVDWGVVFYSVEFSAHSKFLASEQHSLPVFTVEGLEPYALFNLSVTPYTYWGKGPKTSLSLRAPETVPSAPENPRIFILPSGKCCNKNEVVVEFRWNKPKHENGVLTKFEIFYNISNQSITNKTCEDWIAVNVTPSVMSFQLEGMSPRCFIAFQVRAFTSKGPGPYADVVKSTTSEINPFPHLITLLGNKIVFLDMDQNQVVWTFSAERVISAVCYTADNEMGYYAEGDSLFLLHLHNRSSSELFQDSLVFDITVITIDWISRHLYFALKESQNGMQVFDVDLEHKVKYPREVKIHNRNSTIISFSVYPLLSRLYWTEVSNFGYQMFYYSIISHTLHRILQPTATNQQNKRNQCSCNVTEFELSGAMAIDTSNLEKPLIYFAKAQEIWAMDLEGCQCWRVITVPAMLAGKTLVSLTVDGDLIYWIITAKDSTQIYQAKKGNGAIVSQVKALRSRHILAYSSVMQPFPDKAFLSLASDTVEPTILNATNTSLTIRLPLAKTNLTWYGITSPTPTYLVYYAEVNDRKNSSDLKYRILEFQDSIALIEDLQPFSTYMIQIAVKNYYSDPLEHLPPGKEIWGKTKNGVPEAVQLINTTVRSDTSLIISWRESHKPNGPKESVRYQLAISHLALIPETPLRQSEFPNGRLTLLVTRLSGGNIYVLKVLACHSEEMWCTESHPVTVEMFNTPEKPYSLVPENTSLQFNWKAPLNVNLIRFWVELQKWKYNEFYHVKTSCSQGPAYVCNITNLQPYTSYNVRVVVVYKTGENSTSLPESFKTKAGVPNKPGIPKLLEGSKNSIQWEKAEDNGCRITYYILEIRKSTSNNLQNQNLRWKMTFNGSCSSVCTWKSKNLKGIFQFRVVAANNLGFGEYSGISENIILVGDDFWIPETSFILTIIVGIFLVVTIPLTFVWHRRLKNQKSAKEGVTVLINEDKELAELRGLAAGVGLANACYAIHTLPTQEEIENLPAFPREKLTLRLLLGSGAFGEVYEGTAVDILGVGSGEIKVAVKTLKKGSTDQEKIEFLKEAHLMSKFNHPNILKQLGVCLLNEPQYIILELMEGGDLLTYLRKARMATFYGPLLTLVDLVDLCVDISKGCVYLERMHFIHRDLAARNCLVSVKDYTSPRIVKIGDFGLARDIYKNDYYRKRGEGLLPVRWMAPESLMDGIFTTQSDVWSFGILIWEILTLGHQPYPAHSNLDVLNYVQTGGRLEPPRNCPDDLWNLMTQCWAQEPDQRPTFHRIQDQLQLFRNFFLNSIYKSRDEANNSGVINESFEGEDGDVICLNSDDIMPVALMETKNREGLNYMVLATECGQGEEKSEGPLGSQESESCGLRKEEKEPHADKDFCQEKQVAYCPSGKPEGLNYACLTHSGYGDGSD
Experimental: as §1

TrkC = molecular target: T8, TrkC (Homo sapiens, UniProt Q16288); experiment: as above; format: biochemical; conditions: read-out: Half maximal inhibitory concentration IC50 for kinases, TrkC
T8 construct: purchased Reaction Biology Corp
T8 sequence (Q16288 32-839): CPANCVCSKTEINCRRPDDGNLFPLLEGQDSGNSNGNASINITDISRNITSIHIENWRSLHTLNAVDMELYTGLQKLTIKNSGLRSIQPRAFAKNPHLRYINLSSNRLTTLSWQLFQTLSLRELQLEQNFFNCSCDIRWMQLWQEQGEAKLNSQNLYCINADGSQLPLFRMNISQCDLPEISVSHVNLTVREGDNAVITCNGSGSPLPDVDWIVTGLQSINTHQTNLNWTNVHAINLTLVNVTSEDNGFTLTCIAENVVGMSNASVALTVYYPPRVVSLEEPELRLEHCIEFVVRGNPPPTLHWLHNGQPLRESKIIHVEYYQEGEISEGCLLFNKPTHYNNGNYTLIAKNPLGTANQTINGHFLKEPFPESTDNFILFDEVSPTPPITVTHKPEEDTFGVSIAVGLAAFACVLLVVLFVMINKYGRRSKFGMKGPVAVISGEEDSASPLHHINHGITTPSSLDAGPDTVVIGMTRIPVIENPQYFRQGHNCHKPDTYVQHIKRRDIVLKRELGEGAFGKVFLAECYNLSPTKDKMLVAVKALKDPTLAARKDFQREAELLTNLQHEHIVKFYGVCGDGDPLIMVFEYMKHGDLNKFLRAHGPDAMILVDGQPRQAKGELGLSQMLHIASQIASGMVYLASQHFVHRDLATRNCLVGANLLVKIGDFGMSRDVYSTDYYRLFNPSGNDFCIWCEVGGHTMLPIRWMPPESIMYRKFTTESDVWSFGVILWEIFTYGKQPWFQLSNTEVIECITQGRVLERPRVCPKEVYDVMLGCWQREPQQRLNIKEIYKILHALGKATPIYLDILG
Experimental: as §1

TrkA-G667C = molecular target: T9, TrkA-G667C (Homo sapiens, UniProt P04629, G667C); experiment: as above; format: biochemical; conditions: read-out: Half maximal inhibitory concentration IC50 for kinases, TrkA-G667C
T9 construct: purchased Reaction Biology Corp
T9 sequence (P04629 33-796 G667C): as the sequence (P04629 33-796) above, with G635C counted along it
Experimental: as §1

BaF3 ETV6-NTRK3-G623R = molecular target: T10, BaF3 ETV6-NTRK3-G623R (Homo sapiens, UniProt Q16288, G623R, cells depend on it); experiment: Inhibitory activity against cell proliferation (CellTiter-Glo, 72 hours); format: cell-based; conditions: read-out: Half maximal inhibitory concentration IC50 of cells, BaF3 ETV6-NTRK3-G623R
T10 construct: fused on or other part: N-terminal part of ETV6 (TEL) as fusion partner (part of the key); P41212 (Transcription factor ETV6)
Experimental: as §2, with “kit. In this test, the cell lines used are Ba/F3 LMNA-NTRK1-WT, Ba/F3 LMNA-NTRK1-F589L, BaF3 LMNA-NTRK1-G595R, BaF3 LMNA-NTRK1-G667A, BaF3 ETV6-NTRK3-WT, BaF3 ETV6-NTRK3-G623R, and Ba/F3 SLC34A2-ROS1-WT stable cell strains, 5000 cells/well.” for “kit.”
as §3, §4
c) Cells in the 96-well plate were incubated overnight at 37° C. with 5% CO2 and 95% humidity.
as §5
b) The cells in the 96-well plate added with compound were incubated for 72 hours at 37° C. with 5% CO2 and 95% humidity, followed by the CTG (CellTiter-Glo) analysis.
as §6, §7, §8, §9, §10, §11

Row | SMILES | pIC50 (TrkA) | pIC50 (TrkA-G595R) | pIC50 (ALK) | pIC50 (Ros1) | pIC50 (TrkC) | pIC50 (TrkA-G667C) | further results
1 | O=C1NC2(CC2)COc2ncc(F)cc2C2COCCN2c2ccn3ncc1c3n2 (single isomer, unassigned) [WX001A] | < 6.00 |  |  |  |  |  | 
2 | O=C1NC2(CC2)COc2ccc(F)cc2C2CCCCN2c2ccn3ncc1c3n2 (single isomer, unassigned) [WX002A] | 8.49 | 8.68 | 7.73 | 9.70 | 9.70 | 9.15 | GI50 (Ba/F3 LMNA-NTRK1-WT): 0.2 nM; GI50 (Ba/F3 SLC34A2-ROS1-WT): 12.6 nM; GI50 (BaF3 LMNA-NTRK1-G595R): 0.4 nM; GI50 (BaF3 ETV6-NTRK3-G623R): 5.8 nM
3 | O=C1NC2(CC2)CNc2ncc(F)cc2C2COCCN2c2ccn3ncc1c3n2 (single isomer, unassigned) [WX010A] | 8.39 | 8.05 | < 6.00 | 7.54 | 9.52 | 6.72 | 
4 | O=C1NC2(CC2)CNc2ncc(F)cc2C2COCCN2c2ccn3ncc1c3n2 (single isomer, unassigned) [WX010B] | < 6.00 |  |  |  |  |  | 
5 | O=C1NC2(CC2)COc2ccc(F)cc2[C@@H]2CCCCN2c2ccn3ncc1c3n2 [WX002B] | 6.28 |  |  |  |  |  | 
6 | C[C@H]1CNC(=O)c2cnn3ccc(nc23)N2CCOC[C@H]2c2cc(F)cnc2O1 [WX004A] | 6.36 |  |  |  |  |  | 
